Source: patent US9963448B2, “Bicyclic inhibitors of PAD4” (Padlock Therapeutics, Inc., priority 2015, dated 2018)
Where two headings read alike, the source gives them in different places.

Key:
hPAD4 = hPAD4 (Homo sapiens, UniProt Q9UM07); test: hPAD4 RFMS (RapidFire mass spectrometry) PAD4 inhibition assay; assay type: biochemical; settings: hPAD4 enzyme, RFMS readout;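 as to hPAD4 RFMS pIC50: grade E means pIC50 at most 4 and F means pIC50 4.0 to 5.0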
Method: (§1) Compounds of the present invention were assayed as inhibitors of PAD4 using the assay protocol described below.
(§2) Compound stock solutions were stored at RT. […] Final assay conditions were as follows:
(§3) Total incubation time: 65 mins at 37° C.
(§4) Stop solution: 40 μl 5% TCA in ACN
(§5) The compound numbers correspond to the compound numbers in Table 1. […] The term pIC50=−log(IC50). […] “NA” stands for “not assayed.”

mPAD4 = mPAD4 (Mus musculus, UniProt Q9Z183); test: mPAD4 RFMS PAD4 inhibition assay; assay type: biochemical; settings: mPAD4, RFMS readout;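 as to mPAD4 RFMS pIC50: grade E means pIC50 at most 4 and F means pIC50 4.0 to 5.0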
Sequence of mPAD4 (Q9Z183 whole entry): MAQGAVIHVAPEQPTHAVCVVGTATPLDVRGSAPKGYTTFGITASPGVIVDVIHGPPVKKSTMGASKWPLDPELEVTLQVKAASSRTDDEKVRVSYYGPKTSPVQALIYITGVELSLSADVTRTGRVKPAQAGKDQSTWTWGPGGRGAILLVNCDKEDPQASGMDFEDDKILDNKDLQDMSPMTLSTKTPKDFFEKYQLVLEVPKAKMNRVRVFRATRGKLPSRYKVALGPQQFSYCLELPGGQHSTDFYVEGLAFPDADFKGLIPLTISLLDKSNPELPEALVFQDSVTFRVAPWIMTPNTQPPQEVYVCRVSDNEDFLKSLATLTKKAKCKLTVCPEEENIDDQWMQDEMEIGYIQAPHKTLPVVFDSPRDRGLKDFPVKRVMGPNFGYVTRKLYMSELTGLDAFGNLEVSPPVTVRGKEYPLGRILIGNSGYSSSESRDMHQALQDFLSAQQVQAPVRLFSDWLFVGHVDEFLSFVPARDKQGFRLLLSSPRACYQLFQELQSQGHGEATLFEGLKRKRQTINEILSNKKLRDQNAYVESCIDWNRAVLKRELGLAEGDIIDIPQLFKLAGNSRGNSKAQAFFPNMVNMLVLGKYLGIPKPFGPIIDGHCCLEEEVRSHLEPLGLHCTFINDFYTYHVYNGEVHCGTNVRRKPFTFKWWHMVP
Method: as §1, §2, §3, §4, §5

[1] = pIC50=−log(IC50), read-out: hPAD4 RFMS pIC50 (converted)
[2] = pIC50=−log(IC50), read-out: mPAD4 RFMS pIC50 (converted)

Sequence of hPAD4 (Q9UM07 whole entry): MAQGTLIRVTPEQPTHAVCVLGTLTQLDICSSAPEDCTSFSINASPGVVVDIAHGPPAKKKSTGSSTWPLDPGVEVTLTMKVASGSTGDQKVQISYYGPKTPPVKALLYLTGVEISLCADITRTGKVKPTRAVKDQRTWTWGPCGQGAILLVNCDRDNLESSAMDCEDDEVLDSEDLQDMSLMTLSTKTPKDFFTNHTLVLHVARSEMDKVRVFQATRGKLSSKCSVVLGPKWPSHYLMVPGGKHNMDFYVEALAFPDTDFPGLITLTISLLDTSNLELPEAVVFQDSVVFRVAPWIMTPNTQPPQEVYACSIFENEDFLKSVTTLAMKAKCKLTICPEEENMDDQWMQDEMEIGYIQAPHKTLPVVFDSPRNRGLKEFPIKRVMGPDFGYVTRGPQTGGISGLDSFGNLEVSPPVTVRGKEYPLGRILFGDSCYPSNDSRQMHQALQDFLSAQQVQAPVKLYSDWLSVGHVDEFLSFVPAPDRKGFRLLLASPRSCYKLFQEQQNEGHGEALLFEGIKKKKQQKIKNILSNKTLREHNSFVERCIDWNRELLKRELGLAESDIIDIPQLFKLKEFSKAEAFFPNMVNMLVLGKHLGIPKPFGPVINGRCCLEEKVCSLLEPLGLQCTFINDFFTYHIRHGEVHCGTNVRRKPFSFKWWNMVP

SMILES	IC50 (hPAD4; [1]) [µM]	IC50 (hPAD4; read-out: hPAD4 RFMS IC50) [µM]	mPAD4 RFMS pIC50 (mPAD4; pIC50=−log(IC50))	IC50 (mPAD4; read-out: mPAD4 RFMS IC50) [µM]	IC50 (mPAD4; [2]) [µM]	hPAD4 RFMS pIC50 (hPAD4; pIC50=−log(IC50))
COc1cc(C(=O)N2C[C@@H](N)CC[C@@H]2CO)cc2nc(-c3cc4cccnc4n3CC3CC3)n(C)c12 (single isomer, unassigned) [Compound I-227]	10 to 100	> 10	E/F	> 10	–	–
COc1cc(C(=O)N2C[C@@H]3CC[C@H]2[C@@H](N)C3)cc2nc(-c3cc4cccnc4n3CC3CC3)n(C)c12 [Compound I-212]	10 to 100	> 10	–	> 10	10 to 100	–
COc1cc(C(=O)N2C[C@H]3CC[C@@H]2[C@@H]3N)cc2nc(-c3cc4cccnc4n3CCF)n(C)c12 [Compound I-157]	1 to 10	1 to 5	–	1 to 5	1 to 10	–
COc1cc(C(=O)N2CC(O)(C3CCCCN3)C2)cc2nc(-c3cc4cccnc4n3CC3CC3)n(C)c12 (racemic) [Compound I-74]	10 to 100	> 10	–	> 10	10 to 100	–
CCn1c(-c2nc3cc(C(=O)N4CCC[C@@H](N)C4)cc(OC)c3n2C[C@H]2C[C@@](C)(OC)C2)cc2ccc(OC)nc21 [Compound I-204]	< 1	< 1	–	< 1	< 1	–
COc1ccc2cc(-c3nc4cc(C(=O)N5C[C@H](N)C[C@@H](F)C5)cc(OC(F)F)c4n3C)n(CC3CC3)c2n1 [Compound I-109, (3R,5R)-1-{2-[1-(cyclopropylmethyl)-6-methoxy-1H-pyrrolo[2,3-b]pyridin-2-yl]-7-(difluoromethoxy)-1-methyl-1H-1,3-benzodiazole-5-carbonyl}-5-fluoropiperidin-3-amine]	< 1	< 1	–	< 1	< 1	–
CCOc1cc(C(=O)N2CC(N)CCC2C)cc2nc(-c3cc4cccnc4n3CC3CC3)n(C)c12 (stereo not drawn) [Compound I-111]	1 to 10	1 to 5	–	< 1	< 1	–
COc1cc(C(=O)N2C[C@H](N)C[C@@H](F)C2)cc2nc(-c3cc4cccnc4n3CC3CC3)n(C)c12 [Compound I-35]	< 1	< 1	–	< 1	< 1	–
COc1cc(C(=O)N2CCC(F)C(N)C2)cc2nc(-c3cc4cccnc4n3CC3CC3)n(C)c12 (racemic) [Compound I-75, 1-{2-[1-(Cyclopropylmethyl)-1H-pyrrolo[2,3-b]pyridin-2-yl]-7-methoxy-1-methyl-1H-1,3-benzodiazole-5-carbonyl}-4-fluoropiperidin-3-amine]	1 to 10	1 to 5	–	1 to 5	1 to 10	–
CCn1c(-c2nc3cc(C(=O)N4CCC[C@@H](N)C4)cc(OC)c3n2C)cc2ccc(OC)nc21 [Compound I-135]	< 1	< 1	–	< 1	< 1	–
COCCn1c(-c2cc3cccnc3n2CC2CC2)nc2cc(C(=O)N3CCC[C@@H](N)C3)cc(OC)c21 [Compound I-177]	1 to 10	1 to 5	–	< 1	< 1	–
CO[C@H]1CCN(C(=O)c2ccc3c(c2)nc(-c2cc4cccnc4n2CC2CC2)n3C)C[C@H]1N (single isomer, unassigned) [Compound I-65]	10 to 100	> 10	–	> 10	10 to 100	–
COc1cc(C(=O)N2C[C@H]3CC[C@@H]2[C@@H](N)C3)cc2nc(-c3cc4cccnc4n3CC3CC3)n(C)c12 [Compound I-216]	10 to 100	> 10	–	> 10	10 to 100	–
COc1cc(C(=O)N2C[C@H]3CC[C@@H]2[C@@H]3N)cc2nc(-c3cc4cccnc4n3CC3CC3)n(C[C@H]3C[C@@](C)(OC)C3)c12 [Compound I-181]	< 1	< 1	–	< 1	< 1	–
COc1cc(C(=O)N2CC3CCC2[C@@H]3N)cc2nc(-c3cc4cccnc4n3CC3CC3)n(C)c12 (stereo partly drawn) [Compound I-30]	10 to 100	> 10	–	> 10	10 to 100	–
COc1ccc2cc(-c3nc4cc(C(=O)N5C[C@H]6CC[C@@H]5[C@@H]6N)cc(F)c4n3C)n(CC3CC3)c2n1 [Compound I-230]	< 1	< 1	–	< 1	< 1	–
COc1cc(C(=O)N2C[C@@H](N)C[C@H](O)C2)cc2nc(-c3cc4cccnc4n3CC3CC3)n(C)c12 (racemic) [Compound I-80]	1 to 10	5 to 10	–	1 to 5	1 to 10	–
CCn1c(-c2nc3cc(C(=O)N4C[C@H]5CC[C@@H]4[C@@H]5N)cc(F)c3n2C)cc2cccnc21 [Compound I-165]	1 to 10	1 to 5	–	1 to 5	1 to 10	–

SMILES	IC50 (hPAD4; [1]) [µM]	IC50 (hPAD4; read-out: hPAD4 RFMS IC50) [µM]	mPAD4 RFMS pIC50 (mPAD4; pIC50=−log(IC50))	IC50 (mPAD4; read-out: mPAD4 RFMS IC50) [µM]	IC50 (mPAD4; [2]) [µM]	hPAD4 RFMS pIC50 (hPAD4; pIC50=−log(IC50))
COc1ccc2cc(-c3nc4cc(C(=O)N5C[C@H]6CC[C@@H]5[C@@H]6N)cc(OC)c4n3C)n(CC3CC3)c2n1 [Compound I-188]	< 1	< 1	–	< 1	< 1	–
Cn1c(-c2cc3cccnc3n2CC2CC2)nc2cc(C(=O)N3CCC[C@@H](N)C3)cc(S(C)(=O)=O)c21 [Compound I-131, (3R)-1-{2-[1-(cyclopropylmethyl)-1H-pyrrolo[2,3-b]pyridin-2-yl]-7-methanesulfonyl-1-methyl-1H-1,3-benzodiazole-5-carbonyl}piperidin-3-amine]	1 to 10	5 to 10	–	> 10	10 to 100	–
COc1cc(C(=O)N2C[C@H](N)C[C@@H](F)C2)cc2nc(-c3cc4ccc(C(F)(F)F)nc4n3CC3CC3)n(C)c12 [Compound I-208]	< 1	< 1	–	< 1	< 1	–
COc1cc(C(=O)N2C[C@@H](N)C[C@H](F)C2)cc2nc(-c3cc4cccnc4n3CC3(C)CC3)n(C)c12 [Compound I-93, (3S,5S)-5-Fluoro-1-(7-methoxy-1-methyl-2-{1-[(1-methylcyclopropyl)methyl]-1H-pyrrolo[2,3-b]pyridin-2-yl}-1H-1,3-benzodiazole-5-carbonyl)piperidin-3-amine]	1 to 10	1 to 5	–	1 to 5	1 to 10	–
COc1cc(C(=O)N2CCC[C@@H](N)C2)cc2nc(-c3cc4cccnc4n3[C@H](C)C3CC3)n(C)c12 [Compound I-101, (3R)-1-(2-{1-[(1R)-1-cyclopropylethyl]-1H-pyrrolo[2,3-b]pyridin-2-yl}-7-methoxy-1-methyl-1H-1,3-benzodiazole-5-carbonyl)piperidin-3-amine]	1 to 10	1 to 5	–	1 to 5	1 to 10	–
Cn1c(-c2cc3cccnc3n2CC2CC2)nc2cc(C(=O)N3C[C@@H](N)C[C@H](F)C3)cc(OC(F)F)c21 [Compound I-73]	1 to 10	1 to 5	–	< 1	< 1	–
CCn1c(-c2nc3cc(C(=O)N4CCC[C@@H](N)C4)cc(OC)c3n2C)cc2ccc(C)nc21 [Compound I-161]	< 1	< 1	–	< 1	< 1	–
CCn1c(-c2nc3cc(C(=O)N4C[C@H]5CC[C@@H]4[C@@H]5N)cc(OC)c3n2CC2CC(F)(F)C2)cc2cccnc21 [Compound I-179]	< 1	< 1	–	1 to 5	1 to 10	–
COc1cc(C(=O)N2C[C@H]3CC[C@@H]2[C@@H]3N)cc2nc(-c3cc4ccc(C)nc4n3CC3CC3)n(C)c12 [Compound I-198]	< 1	< 1	–	< 1	< 1	–
COc1cc(C(=O)N2CC3CCC2[C@H]3N)cc2nc(-c3cc4cccnc4n3CC3CC3)n(C)c12 (stereo partly drawn) [Compound I-31]	< 1	< 1	–	< 1	< 1	–
CCn1c(-c2nc3cc(C(=O)N4CCC[C@@H](N)C4)cc(OC)c3n2CC2CCOCC2)cc2cccnc21 [Compound I-174]	1 to 10	1 to 5	–	1 to 5	1 to 10	–
COc1cc(C(=O)N2CC3COCC3(CN)C2)cc2nc(-c3cc4cccnc4n3CC3CC3)n(C)c12 (racemic) [Compound I-96]	10 to 100	> 10	–	> 10	10 to 100	–
COc1cc(C(=O)N2CCOC3(CNC3)C2)cc2nc(-c3cc4cccnc4n3CC3CC3)n(C)c12 [Compound I-122]	–	> 10	–	> 10	> 100	E/F
CCn1c(-c2nc3cc(C(=O)N4C[C@H]5CC[C@@H]4[C@@H]5N)ccc3n2C)cc2cccnc21 [Compound I-152]	1 to 10	1 to 5	–	5 to 10	1 to 10	–
CCn1c(-c2nc3cc(C(=O)N4CCC[C@@H](N)C4)c(F)cc3n2C)cc2cccnc21 [Compound I-171]	1 to 10	5 to 10	–	5 to 10	1 to 10	–
COc1cc(C(=O)N2CC3CCC2C(N)C3)cc2nc(-c3cc4cccnc4n3CC3CC3)n(C)c12 (stereo not drawn) [Compound I-115]	< 1	< 1	–	< 1	< 1	–
COCCn1c(-c2nc3cc(C(=O)N4C[C@H](N)CC[C@@H]4C)cc(OC)c3n2C)cc2cccnc21 [Compound I-195]	1 to 10	5 to 10	–	1 to 5	1 to 10	–
COc1cc(C(=O)N2C[C@H]3CC[C@@H]2[C@@H]3N)cc2nc(-c3cc4cccnc4n3CC3CC3)n(C[C@H]3CCOC3)c12 [Compound I-231]	< 1	< 1	–	< 1	< 1	–
